Assay results from the supplement of paper PMC6045584.
± gives the standard deviation of the averaged measurements.

What was measured:
DASATINIB = compound: Cc1nc(Nc2ncc(C(=O)Nc3c(C)cccc3Cl)s2)cc(N2CCN(CCO)CC2)n1 [DASATINIB]; test: surviving fraction relative to DMSO-only wells; higher = less growth inhibition; settings: exposure time: 5 days
Outline: (§1)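 Viability was scored with CellTiter-Glo luminescence and normalised to the median of DMSO-only wells as surviving fraction. Beforehand, log-phase tumour cell lines were seeded at 250–500 cells per well in 384-well plates, allowed 24 hours, and exposed continuously for five days to inhibitors at 0.5, 1, 5, 10, 50, 100, 500 and 1000 nM. Only lines whose three screens gave replicate Pearson r >0.7 and median Z' >0.3 were kept.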

XAV-939 = compound: Oc1nc(-c2ccc(C(F)(F)F)cc2)nc2c1CSCC2 [XAV-939]; test: as above; settings: exposure time: 5 days
Outline: as §1

Test System	surviving fraction (DASATINIB; 0.5 nM)	surviving fraction (DASATINIB; 1 nM)	surviving fraction (DASATINIB; 5 nM)	surviving fraction (DASATINIB; 10 nM)	surviving fraction (DASATINIB; 50 nM)	surviving fraction (DASATINIB; 100 nM)	surviving fraction (DASATINIB; 500 nM)	surviving fraction (DASATINIB; 1000 nM)	surviving fraction (XAV-939; 0.5 nM)	surviving fraction (XAV-939; 1 nM)	surviving fraction (XAV-939; 5 nM)	surviving fraction (XAV-939; 10 nM)	surviving fraction (XAV-939; 50 nM)	surviving fraction (XAV-939; 100 nM)	surviving fraction (XAV-939; 500 nM)	surviving fraction (XAV-939; 1000 nM)
NY BONE	0.9257 ± 0.0085	0.881 ± 0.011	0.828 ± 0.015	0.753 ± 0.018	0.471 ± 0.018	0.366 ± 0.031	0.288 ± 0.012	0.263 ± 0.027	0.927 ± 0.024	0.98 ± 0.037	0.997 ± 0.018	1.06 ± 0.036	1.03 ± 0.053	1.02 ± 0.041	0.936 ± 0.032	0.924 ± 0.029
OS25HAL BONE	0.88 ± 0.03	0.849 ± 0.013	0.849 ± 0.035	0.747 ± 0.035	0.686 ± 0.05	0.599 ± 0.074	0.45 ± 0.073	0.363 ± 0.045	1.01 ± 0.026	1.04 ± 0.015	1.03 ± 0.014	0.965 ± 0.034	1.01 ± 0.013	1.03 ± 0.029	0.872 ± 0.06	0.893 ± 0.075
OSHN BONE	0.889 ± 0.016	0.9163 ± 0.0047	0.865 ± 0.035	0.83 ± 0.014	0.915 ± 0.012	0.891 ± 0.023	0.662 ± 0.13	0.46 ± 0.17	1.02 ± 0.013	1.07 ± 0.047	1.07 ± 0.037	1.05 ± 0.038	1.05 ± 0.015	1.09 ± 0.031	1.07 ± 0.038	1.11 ± 0.035
PCI30 HEADNECK	0.916 ± 0.015	0.888 ± 0.076	0.966 ± 0.05	0.98 ± 0.028	0.747 ± 0.017	0.665 ± 0.036	0.528 ± 0.019	0.421 ± 0.05	1.01 ± 0.029	0.975 ± 0.064	1.07 ± 0.04	1.057 ± 0.0035	1.06 ± 0.036	1.15 ± 0.065	0.945 ± 0.13	0.8693 ± 0.008
RDES SOFT TISSUE	0.849 ± 0.23	0.762 ± 0.2	0.775 ± 0.067	0.767 ± 0.14	0.981 ± 0.09	0.934 ± 0.057	0.975 ± 0.059	0.9887 ± 0.0031	1.24 ± 0.15	1.3 ± 0.16	1.29 ± 0.21	1.22 ± 0.2	1.21 ± 0.14	1.18 ± 0.27	1.11 ± 0.11	1.08 ± 0.16
S68 BREAST	0.625 ± 0.11	0.51 ± 0.096	0.561 ± 0.11	0.419 ± 0.12	0.409 ± 0.029	0.418 ± 0.041	0.277 ± 0.053	0.298 ± 0.079	0.722 ± 0.22	0.763 ± 0.12	1.14 ± 0.25	0.983 ± 0.32	1.19 ± 0.13	1.12 ± 0.22	0.829 ± 0.05	0.767 ± 0.076
SAOS2 BONE	0.842 ± 0.055	0.788 ± 0.024	0.62 ± 0.017	0.511 ± 0.043	0.475 ± 0.047	0.384 ± 0.023	0.274 ± 0.032	0.256 ± 0.015	1.16 ± 0.027	1.15 ± 0.041	1.21 ± 0.022	1.28 ± 0.05	1.26 ± 0.034	1.25 ± 0.051	1.14 ± 0.046	1.07 ± 0.072
SCC003 HEADNECK	0.877 ± 0.036	0.843 ± 0.068	0.899 ± 0.13	0.813 ± 0.076	0.827 ± 0.025	0.654 ± 0.046	0.263 ± 0.014	0.149 ± 0.023	1.04 ± 0.11	1.07 ± 0.096	1.1 ± 0.052	1.08 ± 0.11	1.02 ± 0.025	1.07 ± 0.076	1.01 ± 0.12	1.05 ± 0.13
